# Reference: patent US8946457B2, “Flavone derivatives and their preparative method and medical use” (Tianjin Medical University, priority 2010, dated 2015)
# “Also recorded” adds a separate entry of the source.
# Columns and labels:
# IR HepG2 cells = test: Glucose consumption assay in IR HepG2 cells; assay type: cell-based, Human; details: for EC50: Homo sapiens, insulin-resistant HepG2 cells, 24 h incubation with compound, read-out: EC50, effects on glucose consumption in IR HepG2 cells; for Antidiabetic activity (glucose consumption) compared with metformin, in words: IR HepG2 cells, comparison with metformin
# Experimental: The compounds were dissolved in DMSO as stock. The final solution was 1:1,000 dilution of the stock in DMEM.
# Human HepG2 cells were cultured in 96-well cluster plates, after achieving confluence, 10^−[…] insulin was treated for 36 h in serum-free and phenol red-free high-glucose DMEM. After this incubation, the cells were washed four times with high-glucose DMEM ([…]) and twice with phosphate-buffered saline. The cells were added to serum-free and phenol red-free high-glucose DMEM containing the various test compounds at different concentrations, incubated for 24 h, and then glucose content in the culture medium was measured using a glucose assay kit.
# The enhancement ratio of glucose consumption (GC) was calculated as follows: GC %=(GC treatment group−GC of control group)/GC of control group×100.
# The potencies of the products were expressed as median effective concentration (EC50) values.
# All data were presented as the means±SD. SPSS10.0 was used for statistical analysis. Statistical significance was at a level of 5% (p<0.05).
# GLUT4 = test: GLUT4myc translocation (cell surface GLUT4myc density, ELISA) in L6-GLUT4myc skeletal muscle cells; assay type: cell-based, rat; details: for Stimulation of GLUT4myc translocation, in words: L6-GLUT4myc muscle cells, 24 h incubation; for Effect on GLUT4 translocation compared with insulin: L6-GLUT4myc cells, insulin 100 nM positive control
# From the text: GLUT4 is the main glucose transporter in skeletal muscle. In the basal state, the majority of GLUT4 locate in vesicles of cytoplasma. In response to insulin, GLUT4 translocates to the cell membrane, therefore transport more glucose into cell. The rate of glucose transport is the rate-limiting step of glucose metabolism in skeletal muscle. […] In order to measure GLUT4 translocation, we use stable over expressing GLUT4myc rat muscle cell line, L6-GLUT4myc. The amount of GLUT4 on intact cell membrane was measured by ELISA with anti-myc antibody and HRP-conjugated secondary antibody. The OD value was detected at 492 nm.
# The tested compounds were dissolved in DMSO as stock. The final solution was 1:1,000 dilution of the stock in low glucose DMEM.
# The cells were treated with each compound at 2 to 5 different concentrations with triplicate in each group. The control group was treated with 0.1% DMSO. The blank group had no treatment. Insulin was used as positive control.
# Myoblasts were cultured and differentiated into myotubes. Cells were serum starved for 4 hours, then incubated with different compounds at different concentrations for 24 hours or with 100 nM insulin for 20 min. Then cells were washed 3 times with ice-cold phosphate-butfered saline (PBS) supplemented with 1 mM Ca2+ and 1 mM Mg2+(PBS+), fixed with 3% (v/v) paraformaldehyde (PFA) in PBS+ for 10 min at 4° C., then 20 min at room temperature. The cells were washed twice with PBS+, quenched 10 min with 100 mM glycine in PBS+, blocked 10 min with ice-cold 5% (v/v) milk in PBS+, and reacted with polyclonal anti-myc antibody (1:250) for 1 hour. After washing 6 times with PBS+, cells reacted with HRP-bound goat anti-rabbit secondary antibody (1:5000) for 1 hour. The cells were washed 6 times with PBS+, and incubated with 1.0 ml OPD reagent and allowed to develop for 10-20 min. The reaction was stopped with 0.25 ml per well of 3 M HCl. Supernatants were collected and absorbance was measured at 492 nm. Background absorbance obtained in the absence of anti-myc antibody was subtracted from all values.
# All data were presented as the means±SD. SPSS16.0 was used for statistical analysis. Data sets of more than two groups were compared using analysis of variance (One-Way ANOVA). Statistical significance was at a level of 5% (p<0.05).
# ACC = test: Phosphorylation of ACC by western blotting in HepG2 cells; assay type: cell-based, Human; details: 2 h incubation, western blot
# Experimental: (§1) In this section, Western Blotting was used to assay the effect of these flavonoids on the phosphorylation of AMPK and ACC in HepG2 cells to illustrate the relationship between the mechanism of the flavonoids on glucose uptake and lipid metabolism and APMK signal pathway.
# (§2) Whole cell lysate preparation: After serum-starving HepG2 cells, the cells were incubated with the flavonoids for 2 h, and then washed twice with PBS. Next, pre-chilled RIPA lysis buffer was added for 20 min at 4° C. The lysates were centrifuged at 13,000 rpm/min for 10 min at 4° C., and the supernatants were used for determination of total protein content. Forty micrograms of protein from the supernatant was aliquoted and its volume was adjusted to thirty microliters using deionized water and loading buffer. Lastly, the protein samples were heated at 65° C. for 15 min.
# (§3) Western blot analysis: The samples were electrophoresed on 7.5% SDS-polyacrylamide gels, transferred to polyvinylidene fluoride membranes, blocked for 1 h in 5% (w/v) bovine serum albumin, and then incubated with primary antibodies overnight at 4° C. The membranes were washed three times with TBST and incubated with appropriate secondary antibodies conjugated to horse-radish peroxidase for 1 h at room temperature. The immunoreactive bands were detected using chemiluminescent reagent and autoradiographic film.
# AMPK = test: Phosphorylation of AMPK by western blotting in HepG2 cells; assay type: cell-based, Human; details: 2 h incubation, western blot
# Experimental: as §1, §2, §3
Compound,EC50 (IR HepG2 cells),"Antidiabetic activity (glucose consumption) compared with metformin, in words (IR HepG2 cells)",other results
"O=C(/C=C/c1ccc(O)cc1)COc1c(-c2ccc(O)cc2)oc2cc(O)cc(O)c2c1=O [Compound I-1, 3-O-[(E)-4-(4-Hydroxyphenyl)-2-oxobut-3-en-1-yl] kaempferol]",368 nM,comparable activity with that of metformin,–
"O=C(/C=C/c1ccc(OCc2ccccc2)cc1)COc1c(-c2ccc(O)cc2)oc2cc(O)cc(O)c2c1=O [Compound I-2, 3-O-[(E)-4-(4-(Benzyloxyphenyl))-2-oxobut-3-en-1-yl] kaempferol]",658 nM,–,"Stimulation of GLUT4myc translocation, in words (GLUT4): significantly stimulate GLUT4myc translocation"
"O=C(/C=C/c1ccccc1)COc1c(-c2ccc(O)cc2)oc2cc(O)cc(O)c2c1=O [Compound I-5, 3-O-[(E)-(2-Oxo-4-phenylbut-3-en-1-yl)] kaempferol]",473 nM,–,–
"COc1ccc(/C=C/C(=O)COc2c(-c3ccc(O)cc3)oc3cc(O)cc(O)c3c2=O)cc1O [Compound I-7, 3-O-[(E)-4-(3-Hydroxy-4-methoxyphenyl)-2-oxobut-3-en-1-yl]kaempferol]",5070 nM,–,–
"COc1cc(/C=C/C(=O)COc2c(-c3ccc(O)cc3)oc3cc(O)cc(O)c3c2=O)ccc1O [Compound I-8, 3-O-[(E)-4-(3-Methoxy-4-hydroxyphenyl-)-2-oxobut-3-en-1-yl]kaempferol]",6190 nM,–,–
"O=C(/C=C/c1ccc(O)c(Cl)c1)COc1c(-c2ccc(O)cc2)oc2cc(O)cc(O)c2c1=O [Compound I-11, 3-O-[(E)-4-(3-Chloro-4-hydroxyphenyl)-2-oxobut-3-en-1-yl] kaempferol]",3560 nM,–,–
"O=C(/C=C/c1ccc(Br)cc1)COc1c(-c2ccc(O)cc2)oc2cc(O)cc(O)c2c1=O [Compound I-13, 3-O-[(E)-4-(4-Bromophenyl)-2-oxobut-3-en-1-yl] kaempferol]",393 nM,–,–
"O=C(/C=C/c1ccc(F)cc1)COc1c(-c2ccc(O)cc2)oc2cc(O)cc(O)c2c1=O [Compound I-14, 3-O-[(E)-4-(4-Fluorophenyl)-2-oxobut-3-en-1-yl] kaempferol]",669 nM,–,"Stimulation of GLUT4myc translocation, in words (GLUT4): significantly stimulate GLUT4myc translocation"
"O=C(/C=C/c1ccc(Cl)cc1)COc1c(-c2ccc(O)cc2)oc2cc(O)cc(O)c2c1=O [Compound I-15, 3-O-[(E)-4-(4-Chlorophenyl)-2-oxobut-3-en-1-yl] kaempferol]",1080 nM,–,–
"O=C(/C=C/c1ccc(Cl)c(Cl)c1)COc1c(-c2ccc(O)cc2)oc2cc(O)cc(O)c2c1=O [Compound I-16, 3-O-[(E)-4-(3,4-Dichlorophenyl)-2-oxobut-3-en-1-yl] kaempferol]",2590 nM,–,–

# These reach a lower EC50 (IR HepG2 cells). Values come first.
EC50 (IR HepG2 cells),Compound,"Antidiabetic activity (glucose consumption) compared with metformin, in words (IR HepG2 cells)",other results
270 nM,"CN(C)C(=N)N=C(N)N [metformin, reference compound]",–,–
149 nM,"COc1ccc(/C=C/C(=O)COc2c(-c3ccc(O)cc3)oc3cc(O)cc(O)c3c2=O)cc1 [Compound I-3, 3-O-[(E)-4-(4-Methoxyphenyl)-2-oxobut-3-en-1-yl] kaempferol]",comparable activity with that of metformin; also recorded: significantly superior to that of metformin,"Stimulation of GLUT4myc translocation, in words (GLUT4): significantly stimulate GLUT4myc translocation"
42 nM,"CCOc1ccc(/C=C/C(=O)COc2c(-c3ccc(O)cc3)oc3cc(O)cc(O)c3c2=O)cc1 [Compound I-4, 3-O-[(E)-4-(4-Ethoxyphenyl)-2-oxobut-3-en-1-yl] kaempferol]",comparable activity with that of metformin; also recorded: significantly superior to that of metformin,–
15 nM,"CC(C)c1ccc(/C=C/C(=O)COc2c(-c3ccc(O)cc3)oc3cc(O)cc(O)c3c2=O)cc1 [Compound I-10, 3-O-[(E)-4-(4-Isopropylphenyl)-2-oxobut-3-en-1-yl] kaempferol]",comparable activity with that of metformin; also recorded: significantly superior to that of metformin,"Stimulation of GLUT4myc translocation, in words (GLUT4): significantly stimulate GLUT4myc translocation"
13 nM,"CC(C)(C)c1ccc(/C=C/C(=O)COc2c(-c3ccc(O)cc3)oc3cc(O)cc(O)c3c2=O)cc1 [Compound I-9, 3-O-[(E)-4-(4-(tert-Butyl)phenyl)-2-oxobut-3-en-1-yl] kaempferol]",comparable activity with that of metformin; also recorded: significantly superior to that of metformin,–
10 nM,"Cc1ccc(/C=C/C(=O)COc2c(-c3ccc(O)cc3)oc3cc(O)cc(O)c3c2=O)cc1 [Compound I-6, 3-O-[(E)-(2-Oxo-4-(p-tolyl)but-3-en-1-yl)] kaempferol]",comparable activity with that of metformin; also recorded: significantly superior to that of metformin,–
3 nM,"N#Cc1ccc(/C=C/C(=O)COc2c(-c3ccc(O)cc3)oc3cc(O)cc(O)c3c2=O)cc1 [Compound I-12, 3-O-[(E)-4-(4-Cyanophenyl)-2-oxobut-3-en-1-yl] kaempferol]",comparable activity with that of metformin; also recorded: significantly superior to that of metformin; also recorded: strongest antidiabetic activity; also recorded: greater than that of marketed drug metformin,"Phosphorylation of ACC (ACC): significantly stimulate the phosphorylation; Phosphorylation of AMPK (AMPK): significantly stimulate the phosphorylation; Effect on GLUT4 translocation compared with insulin (GLUT4; 2 μg/ml): higher effect on GLUT4 translocation than insulin; also recorded: strongest effect on promoting glucose transporter 4 translocation than insulin; Effect on GLUT4 translocation compared with insulin (GLUT4; 5 μg/ml): higher effect on GLUT4 translocation than insulin; also recorded: strongest effect on promoting glucose transporter 4 translocation than insulin; Stimulation of GLUT4myc translocation, in words (GLUT4): strongest effect; also recorded: significantly stimulate GLUT4myc translocation"
